Measured values published in the NIST ThermoML archive (doi:10.1021/je050116g).

Assays:
[1] = xn = mol fraction of the nth substance listed; conditions: 298.15 K, 101.33 kPa, Liquid
[2] = relative permittivity at various frequencies (dimensionless); xn = mol fraction of the nth substance listed; conditions: 298.15 K, 101.33 kPa, Liquid, Frequency=0.03 MHz, Parallel plate capacitor
[3] = 298.15 K; 101.33 kPa; Liquid

CCCCCCCCCCCC [dodecane] + CCO
Conditions	mass density [kg/m3]	relative permittivity
[1], x2 = 0.00284	745.404	–
[1], x2 = 0.0035	745.397	–
[1], x2 = 0.00482	745.386	–
[1], x2 = 0.0076	745.363	–
[1], x2 = 0.01169	745.338	–
[1], x2 = 0.01342	745.329	–
[1], x2 = 0.0189	745.313	–
[1], x2 = 0.02678	745.305	–
[1], x2 = 0.04127	745.348	–
[1], x2 = 0.06055	745.432	–
[1], x2 = 0.08084	745.514	–
[1], x2 = 0.09645	745.601	–
[2], x2 = 0.000779	–	2.00812
[2], x2 = 0.001608	–	2.00915
[2], x2 = 0.002571	–	2.01035
[2], x2 = 0.003578	–	2.0116
[2], x2 = 0.004642	–	2.01293
[2], x2 = 0.005982	–	2.01453
[2], x2 = 0.007701	–	2.01653
[2], x2 = 0.009387	–	2.0184
[2], x2 = 0.01111	–	2.02022
[2], x2 = 0.01308	–	2.02209
[2], x2 = 0.01589	–	2.02461
[2], x2 = 0.02008	–	2.02815
[2], x2 = 0.02502	–	2.03214
[2], x2 = 0.03098	–	2.03689
[2], x2 = 0.03829	–	2.04274
[2], x2 = 0.04601	–	2.04907
[2], x2 = 0.055	–	2.05682
[2], x2 = 0.06553	–	2.06649
[2], x2 = 0.07632	–	2.07716
[2], x2 = 0.08814	–	2.08986
[2], x2 = 0.1017	–	2.10596

CCCCCCCCCO [nonan-1-ol]
Conditions	mass density [kg/m3]
[3]	824.263

CO [methanol]
Conditions	mass density [kg/m3]
[3]	786.538

CCCCCCCO [heptan-1-ol]
Conditions	mass density [kg/m3]
[3]	818.746

CCCCCCCCCCCC [dodecane] + CCCCCO
Conditions	mass density [kg/m3]	relative permittivity
[1], x2 = 0.00199	745.463	–
[1], x2 = 0.00476	745.503	–
[1], x2 = 0.00753	745.546	–
[1], x2 = 0.01643	745.714	–
[1], x2 = 0.02691	745.951	–
[1], x2 = 0.03525	746.159	–
[1], x2 = 0.05055	746.571	–
[1], x2 = 0.06514	746.983	–
[1], x2 = 0.08115	747.444	–
[1], x2 = 0.09931	747.979	–
[2], x2 = 0.000482	–	2.00767
[2], x2 = 0.001089	–	2.00844
[2], x2 = 0.001796	–	2.00932
[2], x2 = 0.002589	–	2.01032
[2], x2 = 0.00344	–	2.0114
[2], x2 = 0.004549	–	2.0128
[2], x2 = 0.005875	–	2.01448
[2], x2 = 0.007295	–	2.01623
[2], x2 = 0.009216	–	2.0185
[2], x2 = 0.01162	–	2.02114
[2], x2 = 0.0141	–	2.02365
[2], x2 = 0.01688	–	2.02629
[2], x2 = 0.0211	–	2.03003
[2], x2 = 0.02571	–	2.03388
[2], x2 = 0.03208	–	2.03903
[2], x2 = 0.03962	–	2.045
[2], x2 = 0.04963	–	2.05298
[2], x2 = 0.05931	–	2.0609
[2], x2 = 0.07029	–	2.07011
[2], x2 = 0.08177	–	2.08023
[2], x2 = 0.09402	–	2.09162
[2], x2 = 0.1068	–	2.10429

CCCCO [butan-1-ol]
Conditions	mass density [kg/m3]
[3]	805.767

CCCCCCCCCCO [decan-1-ol] + CCCCCCCCCCCC
Conditions	mass density, [1] [kg/m3]	relative permittivity, [2]
x1 = 0.001264	745.351	–
x1 = 0.001971	–	2.00974
x1 = 0.002235	745.401	–
x1 = 0.002902	–	2.01098
x1 = 0.003662	–	2.01199
x1 = 0.004525	–	2.01314
x1 = 0.00462	745.527	–
x1 = 0.005614	–	2.01459
x1 = 0.006788	–	2.01613
x1 = 0.007983	–	2.01764
x1 = 0.009268	–	2.0192
x1 = 0.01089	–	2.02107
x1 = 0.01183	745.934	–
x1 = 0.01283	–	2.02321
x1 = 0.01445	–	2.02492
x1 = 0.01654	–	2.027
x1 = 0.01864	–	2.029
x1 = 0.02121	–	2.03137
x1 = 0.02459	–	2.03426
x1 = 0.02958	–	2.03864
x1 = 0.0323	747.221	–
x1 = 0.03739	–	2.04514
x1 = 0.04685	–	2.05286
x1 = 0.05669	748.861	2.06088
x1 = 0.06704	–	2.06945
x1 = 0.07856	–	2.07915
x1 = 0.08334	750.666	–
x1 = 0.08846	–	2.08773
x1 = 0.1051	–	2.10262
x1 = 0.1069	752.273	–

CCCCCCCCO [octan-1-ol]
Conditions	mass density [kg/m3]
[3]	821.694

CCCCCCCO [heptan-1-ol] + CCCCCCCCCCCC
Conditions	mass density [kg/m3]	relative permittivity
[1], x1 = 0.00183	745.491	–
[1], x1 = 0.00384	745.55	–
[1], x1 = 0.00719	745.657	–
[1], x1 = 0.01509	745.934	–
[1], x1 = 0.02602	746.357	–
[1], x1 = 0.03537	746.74	–
[1], x1 = 0.04943	747.341	–
[1], x1 = 0.06486	748.019	–
[1], x1 = 0.08181	748.778	–
[1], x1 = 0.1023	749.709	–
[2], x1 = 0.000586	–	2.00786
[2], x1 = 0.001199	–	2.00865
[2], x1 = 0.001873	–	2.00953
[2], x1 = 0.002621	–	2.01049
[2], x1 = 0.003507	–	2.01164
[2], x1 = 0.004712	–	2.01319
[2], x1 = 0.006033	–	2.01489
[2], x1 = 0.007493	–	2.0167
[2], x1 = 0.009131	–	2.01867
[2], x1 = 0.01103	–	2.02082
[2], x1 = 0.01345	–	2.02338
[2], x1 = 0.01639	–	2.02628
[2], x1 = 0.02108	–	2.03055
[2], x1 = 0.02571	–	2.03449
[2], x1 = 0.03171	–	2.03943
[2], x1 = 0.0379	–	2.0444
[2], x1 = 0.04415	–	2.0494
[2], x1 = 0.0517	–	2.05543
[2], x1 = 0.06004	–	2.06219
[2], x1 = 0.07079	–	2.07111
[2], x1 = 0.08135	–	2.08016
[2], x1 = 0.09339	–	2.09089
[2], x1 = 0.1085	–	2.10505

CCCCCCCCO [octan-1-ol] + CCCCCCCCCCCC
Conditions	mass density [kg/m3]	relative permittivity
[1], x1 = 0.00204	745.513	–
[1], x1 = 0.00419	745.594	–
[1], x1 = 0.00734	745.718	–
[1], x1 = 0.01454	746.026	–
[1], x1 = 0.02591	746.56	–
[1], x1 = 0.03144	746.83	–
[1], x1 = 0.04912	747.72	–
[1], x1 = 0.06408	748.489	–
[1], x1 = 0.08146	749.394	–
[1], x1 = 0.1014	750.468	–
[2], x1 = 0.000468	–	2.00782
[2], x1 = 0.000994	–	2.0085
[2], x1 = 0.00174	–	2.00946
[2], x1 = 0.002707	–	2.0107
[2], x1 = 0.003781	–	2.01209
[2], x1 = 0.005049	–	2.01375
[2], x1 = 0.006519	–	2.01566
[2], x1 = 0.008207	–	2.01774
[2], x1 = 0.009844	–	2.01966
[2], x1 = 0.01266	–	2.02275
[2], x1 = 0.01671	–	2.02679
[2], x1 = 0.02183	–	2.03146
[2], x1 = 0.02777	–	2.03652
[2], x1 = 0.03323	–	2.04101
[2], x1 = 0.0398	–	2.04628
[2], x1 = 0.04865	–	2.05338
[2], x1 = 0.05937	–	2.06205
[2], x1 = 0.06843	–	2.06953
[2], x1 = 0.0778	–	2.07741
[2], x1 = 0.08823	–	2.08648
[2], x1 = 0.09795	–	2.0952
[2], x1 = 0.111	–	2.10743
